In ChEMBL document CHEMBL3880386, “Combination comprising the MEK inhibitor N-{3-[3-cyclopropyl-5-(2-fluoro-4-iodo- phenylamino)-6,8-dimethyl-2,4,7-trioxo-3,4,6,7-tetrahydro-2H-pyrido[4,3-d]pyrimidin-1-yl]phenyl}acetamide and the Akt inhibitor N-{(1S)-2-amino-1-[(3-fluorophenyl)methyl]ethyl}-5-chloro-4-(4-chloro-1- …” (2014):

Assays:
[1] = (§1) Growth inhibition of human KM12 cells at 1:10 molar ratio of compound in presence of N-{3-[3-cyclopropyl-5-(2-fluoro-4-iodo-phenylamino)-6,8-dimethyl- 2,4,7-trioxo-3,4,6,7-tetrahydro-2H-pyrido[4,3-d]pyrimidin-1-yl]phenyl}acetamide incubated for 72 hrs by Cell-titer-Glo reagent based assay; assay type: functional; settings: KM12, 72 h
[2] = (§2) Growth inhibition of human Calu6 cells at 1:10 molar ratio of compound in presence of N-{3-[3-cyclopropyl-5-(2-fluoro-4-iodo-phenylamino)-6,8-dimethyl- 2,4,7-trioxo-3,4,6,7-tetrahydro-2H-pyrido[4,3-d]pyrimidin-1-yl]phenyl}acetamide incubated for 72 hrs by Cell-titer-Glo reagent based assay; assay type: functional; settings: Calu-6, 72 h
[3] = Growth inhibition of human COLO205 cells at 1:10 molar ratio of compound in presence of N-{3-[3-cyclopropyl-5-(2-fluoro-4-iodo-phenylamino)-6,8-dimethyl- 2,4,7-trioxo-3,4,6,7-tetrahydro-2H-pyrido[4,3-d]pyrimidin-1-yl]phenyl}acetamide incubated for 72 hrs by Cell-titer-Glo reagent based assay; assay type: functional; settings: COLO 205, 72 h
[4] = Growth inhibition of human DLD1 cells at 1:10 molar ratio of compound in presence of N-{3-[3-cyclopropyl-5-(2-fluoro-4-iodo-phenylamino)-6,8-dimethyl- 2,4,7-trioxo-3,4,6,7-tetrahydro-2H-pyrido[4,3-d]pyrimidin-1-yl]phenyl}acetamide incubated for 72 hrs by Cell-titer-Glo reagent based assay; assay type: functional; settings: DLD-1, 72 h
[5] = Growth inhibition of human NCI-H1155 cells at 1:10 molar ratio of compound in presence of N-{3-[3-cyclopropyl-5-(2-fluoro-4-iodo-phenylamino)-6,8-dimethyl- 2,4,7-trioxo-3,4,6,7-tetrahydro-2H-pyrido[4,3-d]pyrimidin-1-yl]phenyl}acetamide incubated for 72 hrs by Cell-titer-Glo reagent based assay; assay type: functional; settings: NCI-H1155, 72 h
[6] = as §1, with “HT-29” for “KM12”, “cells assessed combination index” for “cells”; assay type: functional
[7] = Growth inhibition of human SW480 cells at 1:10 molar ratio of compound in presence of N-{3-[3-cyclopropyl-5-(2-fluoro-4-iodo-phenylamino)-6,8-dimethyl- 2,4,7-trioxo-3,4,6,7-tetrahydro-2H-pyrido[4,3-d]pyrimidin-1-yl]phenyl}acetamide incubated for 72 hrs by Cell-titer-Glo reagent based assay; assay type: functional; settings: SW480, 72 h
[8] = as §2, with “cells assessed combination index” for “cells”; assay type: functional, Calu-6
[9] = Growth inhibition of human HT-29 cells at 1:10 molar ratio of compound in presence of N-{3-[3-cyclopropyl-5-(2-fluoro-4-iodo-phenylamino)-6,8-dimethyl- 2,4,7-trioxo-3,4,6,7-tetrahydro-2H-pyrido[4,3-d]pyrimidin-1-yl]phenyl}acetamide incubated for 72 hrs by Cell-titer-Glo reagent based assay; assay type: functional; settings: HT-29, 72 h
[10] = Growth inhibition of human Calu3 cells at 1:10 molar ratio of compound in presence of N-{3-[3-cyclopropyl-5-(2-fluoro-4-iodo-phenylamino)-6,8-dimethyl- 2,4,7-trioxo-3,4,6,7-tetrahydro-2H-pyrido[4,3-d]pyrimidin-1-yl]phenyl}acetamide incubated for 72 hrs by Cell-titer-Glo reagent based assay; assay type: functional; settings: Calu-3, 72 h
[11] = Growth inhibition of human COLO205 cells at 1:10 molar ratio of compound in presence of N-{(1S)-2-amino-1-[(3-fluorophenyl)methyl]ethyl}-5-chloro-4-(4-chloro-1-methyl-1H-pyrazol-5-yl)-2-thiophenecar- boxamide incubated for 72 hrs by Cell-titer-Glo reagent based assay; assay type: functional; settings: COLO 205, 72 h
[12] = Growth inhibition of human LS1034 cells assessed combination index at 1:10 molar ratio of compound in presence of N-{(1S)-2-amino-1-[(3-fluorophenyl)methyl]ethyl}-5-chloro-4-(4-chloro-1-methyl-1H-pyrazol-5-yl)-2-thiophenecar- boxamide incubated for 72 hrs by Cell-titer-Glo reagent based assay; assay type: functional, LS-1034
[13] = Growth inhibition of human NCI-H727 cells at 1:10 molar ratio of compound in presence of N-{(1S)-2-amino-1-[(3-fluorophenyl)methyl]ethyl}-5-chloro-4-(4-chloro-1-methyl-1H-pyrazol-5-yl)-2-thiophenecar- boxamide incubated for 72 hrs by Cell-titer-Glo reagent based assay; assay type: functional; settings: NCI-H727, 72 h
[14] = Growth inhibition of human T84 cells at 1:10 molar ratio of compound in presence of N-{(1S)-2-amino-1-[(3-fluorophenyl)methyl]ethyl}-5-chloro-4-(4-chloro-1-methyl-1H-pyrazol-5-yl)-2-thiophenecar- boxamide incubated for 72 hrs by Cell-titer-Glo reagent based assay; assay type: functional; settings: T84, 72 h
[15] = Growth inhibition of human NCI-H1792 cells assessed combination index at 1:10 molar ratio of compound in presence of N-{(1S)-2-amino-1-[(3-fluorophenyl)methyl]ethyl}-5-chloro-4-(4-chloro-1-methyl-1H-pyrazol-5-yl)-2-thiophenecar- boxamide incubated for 72 hrs by Cell-titer-Glo reagent based assay; assay type: functional
[16] = Growth inhibition of human SW1463 cells at 1:10 molar ratio of compound in presence of N-{(1S)-2-amino-1-[(3-fluorophenyl)methyl]ethyl}-5-chloro-4-(4-chloro-1-methyl-1H-pyrazol-5-yl)-2-thiophenecar- boxamide incubated for 72 hrs by Cell-titer-Glo reagent based assay; assay type: functional; settings: SW1463, 72 h
[17] = Growth inhibition of human DLD1 cells at 1:10 molar ratio of compound in presence of N-{(1S)-2-amino-1-[(3-fluorophenyl)methyl]ethyl}-5-chloro-4-(4-chloro-1-methyl-1H-pyrazol-5-yl)-2-thiophenecar- boxamide incubated for 72 hrs by Cell-titer-Glo reagent based assay; assay type: functional; settings: DLD-1, 72 h
[18] = Growth inhibition of human COR-L23 cells assessed combination index at 1:10 molar ratio of compound in presence of N-{(1S)-2-amino-1-[(3-fluorophenyl)methyl]ethyl}-5-chloro-4-(4-chloro-1-methyl-1H-pyrazol-5-yl)-2-thiophenecar- boxamide incubated for 72 hrs by Cell-titer-Glo reagent based assay; assay type: functional
[19] = Growth inhibition of human SW837 cells at 1:10 molar ratio of compound in presence of N-{(1S)-2-amino-1-[(3-fluorophenyl)methyl]ethyl}-5-chloro-4-(4-chloro-1-methyl-1H-pyrazol-5-yl)-2-thiophenecar- boxamide incubated for 72 hrs by Cell-titer-Glo reagent based assay; assay type: functional; settings: SW837, 72 h
[20] = Growth inhibition of human HOP62 cells at 1:10 molar ratio of compound in presence of N-{(1S)-2-amino-1-[(3-fluorophenyl)methyl]ethyl}-5-chloro-4-(4-chloro-1-methyl-1H-pyrazol-5-yl)-2-thiophenecar- boxamide incubated for 72 hrs by Cell-titer-Glo reagent based assay; assay type: functional; settings: HOP-62, 72 h
[21] = Growth inhibition of human Calu6 cells assessed combination index at 1:10 molar ratio of compound in presence of N-{(1S)-2-amino-1-[(3-fluorophenyl)methyl]ethyl}-5-chloro-4-(4-chloro-1-methyl-1H-pyrazol-5-yl)-2-thiophenecar- boxamide incubated for 72 hrs by Cell-titer-Glo reagent based assay; assay type: functional, Calu-6

Cn1ncc(Cl)c1-c1cc(C(=O)N[C@H](CN)Cc2cccc(F)c2)sc1Cl [AFURESERTIB]
IC50 [1]: 104 nM | IC50 [2]: 31 nM | IC50 [3]: 9 nM | IC50 [4]: 932 nM | IC50 [5]: 101 nM | CI [6]: 0.95 | IC50 [7]: 259 nM | CI [8]: 0.79 | IC50 [9]: 15 nM | IC50 [10]: 392 nM

CC(=O)Nc1cccc(-n2c(=O)n(C3CC3)c(=O)c3c(Nc4ccc(I)cc4F)n(C)c(=O)c(C)c32)c1 [TRAMETINIB]
IC50 [11]: 1 nM | CI [12]: 0.84 | IC50 [13]: 2 nM | IC50 [14]: 30 nM | CI [15]: 0.73 | IC50 [16]: 4 nM | IC50 [17]: 93 nM | CI [18]: 0.17 | IC50 [19]: 25 nM | IC50 [20]: 50 nM | CI [21]: 0.79
